{
  "source": "patent US11458155B1",
  "about": "“Active ingredient complexes, compositions and methods for hangover relief and to ameliorate alcohol-induced liver damage” (FULGENT LIFE INC., priority 2021, dated 2022)",
  "key": {"male C57BL/6J mice [1]": {"test_system": "male C57BL/6J mice", "test": "Liver MDA and SOD, oxidative damage caused by acute alcohol ingestion", "assay_type": "in vivo", "conditions": "500 mg/kg intragastric 15 min prior to 8 ml/kg ethanol (40% w/v), liver 6 hours after alcohol; for MDA content in the liver: FIG. 3A; for SOD activity in liver: FIG. 3B"}, "male C57BL/6J mice [2]": {"test_system": "male C57BL/6J mice", "test": "Blood ethanol concentration after ethanol ingestion (headspace gas chromatography)", "assay_type": "in vivo", "conditions": "oral/intragastric 500 mg/kg (Example 1: 250 or 500 mg/kg) before 8 ml/kg ethanol (40% w/v); FIG. 1A", "procedure": "Mice were randomly divided into a normal group (untreated group), a control group and a treatment group, with 8 mice in each group. […] The control group was given the same ethanol solution and corresponding distilled water, while the normal group was only given corresponding distilled water. At different time points of the experiment, the mice were anesthetized by intraperitoneal injection of 10% chloral hydrate (350 mg/kg body weight). Blood and liver tissues were extracted from each animal.\nEyeball blood samples (0.3 mL) were taken, each was put into an 8 mL headspace vial containing 1.2 mL 0.6 M perchloric acid, 0.5 mL trichloroacetic acid (10%) and 0.3 mL internal standard (160 mg/L tertiary butanol), and the concentrations of ethanol and acetaldehyde were determined with headspace gas chromatography.\nBlood samples were collected from the infraorbital venous plexus at different time points (as indicated) after the ethanol administration. Blood ethanol (FIG. 1A) and acetaldehyde (FIG. 1B) levels were determined. Each group contained 6-8 mice. Data are presented as the mean±SD."}, "male C57BL/6J mice [3]": {"test_system": "male C57BL/6J mice", "test": "Serum very low density lipoprotein (VLDL), lipid metabolism in acute alcoholic liver damage", "assay_type": "in vivo", "conditions": "500 mg/kg pretreatment, alcohol-loaded mice, vs alcohol exposure alone; FIG. 4B"}, "male C57BL/6J mice [4]": {"test_system": "male C57BL/6J mice", "test": "Blood acetaldehyde concentration after ethanol ingestion (headspace gas chromatography)", "assay_type": "in vivo", "conditions": "FIG. 1B"}, "male C57BL/6J mice [5]": {"test_system": "male C57BL/6J mice", "test": "Plasma AST and ALT, acute alcohol-induced hepatotoxicity", "assay_type": "in vivo", "conditions": "500 mg/kg intragastric before 8 ml/kg ethanol (40% w/v), blood 6 hours after alcohol, vs model group"}, "C57BL/6J mice": {"test_system": "C57BL/6J mice", "conditions": "cited from earlier work"}, "cells": {"test_system": "cells", "conditions": "cited from earlier work"}, "male C57BL/6J mice [6]": {"test_system": "male C57BL/6J mice", "test": "Liver triglyceride (TG) level, lipid metabolism in acute alcoholic liver damage", "assay_type": "in vivo", "conditions": "500 mg/kg pretreatment, alcohol-loaded mice, vs alcohol exposure alone; FIG. 4A"}, "glutamate receptors": {"test_system": "glutamate receptors", "conditions": "not as great as that of L-glutamic acid; cited from earlier work"}, "mice [7]": {"test_system": "mice", "conditions": "intraperitoneal injection of theanine, oral administration of ethanol; cited from earlier work"}, "[8]": {"conditions": "after oral administration; cited from earlier work"}, "[9]": {"conditions": "cited from earlier work"}, "rats": {"test_system": "rats", "conditions": "cited from earlier work"}, "mice [10]": {"test_system": "mice", "conditions": "cited from earlier work"}},
  "data": [
    {"compound": "CC(=O)N[C@@H](CS)C(=O)O", "note": "[NAC, N-acetyl-cysteine]", "values": [
      {"measurement": "MDA content in the liver", "setting": "male C57BL/6J mice [1]", "result": "significantly reduce"},
      {"measurement": "SOD activity in liver", "setting": "male C57BL/6J mice [1]", "result": "increase"},
      {"measurement": "ethanol in blood", "setting": "male C57BL/6J mice [2]", "result": "significantly reduce"}
    ]},
    {"compound": "NC(=O)C1=CN([C@@H]2O[C@H](COP(=O)(O)OP(=O)(O)OC[C@H]3O[C@@H](n4cnc5c(N)ncnc54)C(O)C3O)C(O)C2O)C=CC1", "note": "(some centres unmarked) [NADH, nicotinamide adenine dinucleotide (NAD)+hydrogen (H)]", "values": [
      {"measurement": "MDA content in the liver", "setting": "male C57BL/6J mice [1]", "result": "significantly reduce"},
      {"measurement": "SOD activity in liver", "setting": "male C57BL/6J mice [1]", "result": "increase"},
      {"measurement": "serum VLDL level", "setting": "male C57BL/6J mice [3]", "result": "decreased"},
      {"measurement": "ethanol in blood", "setting": "male C57BL/6J mice [2]", "result": "significantly reduce"},
      {"measurement": "acetaldehyde in the blood", "setting": "male C57BL/6J mice [4]; after two hours after ethanol administration", "result": "significantly reduced"},
      {"measurement": "blood acetaldehyde levels", "setting": "male C57BL/6J mice [4]; between 30 minutes and two hours after ethanol administration", "result": "significantly increased"},
      {"measurement": "plasma AST level", "setting": "male C57BL/6J mice [5]; FIG. 2A", "result": "significantly reduce"},
      {"measurement": "plasma ALT level", "setting": "male C57BL/6J mice [5]; FIG. 2B", "result": "significantly reduce"},
      {"measurement": "liver NAD+/NADH ratio", "setting": "C57BL/6J mice", "result": "significantly increased"},
      {"measurement": "NAD+ content in liver, blood, brain and fat", "setting": "C57BL/6J mice; intraperitoneal injection", "result": "significantly increased"},
      {"measurement": "cell death caused by NAD+-depleting genotoxins", "setting": "cells; NADH-treated cells, e.g. hydrogen peroxide", "result": "resistant to cell death"},
      {"measurement": "NAD+ increase compared to nicotinamide mononucelotide (NMN)", "setting": "cells; at the same concentrations", "result": "greater NAD+ increases"},
      {"measurement": "apoptosis markers in cells", "setting": "cells", "result": "did not induce apoptosis markers"},
      {"measurement": "liver TG level", "setting": "male C57BL/6J mice [6]", "result": "decreased"}
    ]},
    {"compound": "CCNC(=O)CC[C@H](N)C(=O)O", "note": "[L-theanine]", "values": [
      {"measurement": "ethanol in blood", "setting": "male C57BL/6J mice [2]", "result": "significantly reduce"},
      {"measurement": "binding affinity to glutamate receptors", "setting": "glutamate receptors", "result": "weak"},
      {"measurement": "effect with respect to alcoholic liver injury", "setting": "mice [7]", "result": "protective effect"},
      {"measurement": "time to cross the blood-brain barrier", "setting": "[8]", "result": "≤ 30", "unit": "min"}
    ]},
    {"compound": "N[C@@H](CS)C(=O)O", "note": "[L-cysteine]", "values": [
      {"measurement": "stress and anxiety", "setting": "[9]; dose of 600 mg", "result": "relieved"},
      {"measurement": "self-assessed severity of the hangover, nausea and headache", "setting": "[9]; dose of 1200 mg", "result": "improved"}
    ]},
    {"compound": "O=C1c2c(O)cc(O)cc2O[C@H](c2cc(O)c(O)c(O)c2)[C@H]1O", "note": "[DHM, Dihydromyricetin]", "values": [
      {"measurement": "muscle relaxation induced by alcohol", "setting": "rats", "result": "prevent muscle relaxation"},
      {"measurement": "ethanol in blood", "setting": "male C57BL/6J mice [2]", "result": "significantly reduce"},
      {"measurement": "blood alcohol levels", "setting": "mice [10]", "result": "reduce blood alcohol levels"}
    ]}
  ]
}
